Data from patent publication US20240043842A1, “MUSCLE RETENTION IN AGING AND DUCHENNE MUSCULAR DYSTROPHY (DMD) THROUGH S1P INHIBITION” (Washington University, priority 2022, published 2024).

Columns and labels:
C2C12 cells [1] = assay: MSS51 expression by qPCR in C2C12 cells treated with vehicle or TGF-β1; type: cell-based, murine; settings: scrambled and S1P-depleted C2C12 cells, 50 ng/ml for 5 h, versus vehicle
Method: Total RNA was isolated from C2C12 cells, skeletal muscle, heart, adipose, kidney, and liver with RNA STAT-60 (Tel-Test Inc) as per manufacturer's instructions. For tissues, RNA was isolated by disrupting tissue in RNA STAT-60 using […] (Qiagen) and a TissueLyser II (Qiagen). RNA was reverse transcribed into cDNA using the High-Capacity cDNA Reverse Transcription Kit (Applied Biosystems). Quantitative real-time PCR was performed using Power SYBR green (Applied Biosystems) and transcripts quantified on an ABI QuantiStudio 3 sequence detection system (Applied Biosystems). Data was normalized to 36B4 expression, unless otherwise noted, and results analyzed using the 2^−ΔΔCt method and reported as relative units to controls.
C2C12 cells were plated onto 6-well plates at a 2×10^5 density and 24 h later transfected with either negative control siRNA (Negative Control No. 1 siRNA, Life Technologies) or custom siRNAs targeting S1P (Silencer Select siRNAs, Life Technologies) using Lipofectamine RNAiMAX as per manufacturer's instructions. After 48 h, cells were either harvested for gene expression analysis or differentiated with DMEM supplemented with 2% horse serum. Two days after differentiation, cells were harvested for gene expression analysis. […]

C2C12 cells [2] = assay: Western blot of phosphorylated Smad 2 and AKT in TGF-β1-treated C2C12 cells; type: cell-based, murine; settings: TGF-β1-treated versus untreated cells, whole-cell lysates
Method: C2C12 cells were plated onto 6-well plates at a 2×10^5 density and 24 h later transfected with either negative control siRNA (Negative Control No. 1 siRNA, Life Technologies) or custom siRNAs targeting S1P (Silencer Select siRNAs, Life Technologies) using Lipofectamine RNAiMAX as per manufacturer's instructions. After 48 h, cells were either harvested for gene expression analysis or differentiated with DMEM supplemented with 2% horse serum. Two days after differentiation, cells were harvested for gene expression analysis. For TGF-β1 treatment studies, three days post-differentiation, cells were treated with 50 ng/ml TGF-β1 (R&D) for 5 h then harvested for downstream endpoints.
Skeletal muscle whole protein lysates were generated by homogenizing tissues in lysis buffer (20 mM Tris, 15 mM NaCl, 1 mM EDTA, 0.2% NP-40, and 10% glycerol) supplemented with 2× Protease Complete cocktail tablet (Roche) and 1× Phosphatase Inhibitors (Roche, Mannheim, Germany) with stainless steel beads in a TissueLyzer II (Qiagen). Protein lysates were rotated for 45 min at 4° C., followed by centrifugation at 15,000×g for 15 min at 4° C. Protein was quantified by bicinchoninic acid assay (BCA, Pierce Biotechnology), equal amounts of protein were resolved on a 4-15 SDS-PAGE gradient gel (Bio-Rad), and transferred to PVDF-FL membrane (MilliporeSigma). […]

Substance: TGF-β1: recombinant TGF-β1 (R&D) used to treat C2C12 cells
- MSS51 expression in the presence of TGF-β1 (C2C12 cells [1]): increased
- Smad 2 phosphorylation induced by TGF-β1 (C2C12 cells [2]): induced
